Activity calls are given as the source filed them. The rule behind the calls is not given here.
Columns and labels:
Plasmodium falciparum [1] = assay: Antimalarial activity against Plasmodium falciparum 3D7A infected erythrocytes by [3H]hypoxanthine uptake; format: functional, organism-based
Plasmodium falciparum [2] = assay: Antimalarial activity against Plasmodium falciparum T9-96 infected Rhesus positive human erythrocytes by [3H]hypoxanthine uptake; format: functional, organism-based
Plasmodium yoelii [3] = assay: Antimalarial activity as reduced parasitaemia against Plasmodium yoelii YM in CD1 mice (Mus musculus) given a single peroral dose; format: functional; conditions: po
Plasmodium falciparum [4] = assay: Antimalarial activity against Plasmodium falciparum FCR3-A infected erythrocytes as [3H]hypoxanthine incorporation; format: functional, organism-based
Plasmodium yoelii [5] = assay: Antimalarial activity as reduced parasitaemia against Plasmodium yoelii YM in CD1 mice (Mus musculus) after 7 peroral doses over 4 days; format: functional; conditions: po, 96 h
Plasmodium falciparum [6] = assay: Antimalarial activity as parasite elimination against Plasmodium falciparum infected Aotus monkeys at 10 mg/kg/day for 7 days; format: functional, organism-based

Structure (SMILES)	IC50 (Plasmodium falciparum [1])	IC50 (Plasmodium falciparum [2])	ED50 (Plasmodium yoelii [3])	IC50 (Plasmodium falciparum [4])	ED50 (Plasmodium yoelii [5])	Activity (Plasmodium falciparum [6])
Cc1[nH]c(C)c(-c2ccc(Oc3cccc(C(F)(F)F)c3)cc2)c(=O)c1Cl	5 nM	30 nM	0.2 mg/kg	2.5 nM	0.2 mg/kg	
Cc1[nH]c(C)c(C(F)(F)F)c(=O)c1-c1ccc(Oc2ccc(OC(F)(F)F)cc2)cc1	30 nM					
Cc1[nH]cc(Br)c(=O)c1-c1ccc(Oc2ccc(OC(F)(F)F)cc2)cc1	110 nM					
Cc1[nH]c(C)c(-c2ccc(-c3ccc(Cl)cc3)cc2)c(=O)c1Cl		400 nM			0.7 mg/kg	
Cc1cc(=O)c(-c2ccc(Oc3ccc(Cl)cc3)cc2)c(C)n1O		2200 nM			> 1 mg/kg	
Cc1[nH]c(C)c(-c2ccccc2)c(=O)c1Cl		11000 nM			22 mg/kg	
Cc1[nH]c(C)c(-c2ccc(Oc3ccc(OC(F)(F)F)cc3)cc2)c(=O)c1Br	8 nM	30 nM	0.2 mg/kg		0.3 mg/kg	Active
O=C1C(O)=C([C@H]2CC[C@H](c3ccc(Cl)cc3)CC2)C(=O)c2ccccc21 [ATOVAQUONE]		3 nM		1360 nM	0.03 mg/kg	
Cc1[nH]c(C)c(-c2ccc(Oc3ccc(C(F)(F)F)cc3)cc2)c(=O)c1Cl		60 nM			0.6 mg/kg	
COc1c(C)[nH]c(C)c(-c2ccc(Oc3cccc(C(F)(F)F)c3)cc2)c1=O	300 nM					
Cc1[nH]c(C)c(-c2ccc(Oc3ccc(OC(F)(F)F)cc3)cc2)c(=O)c1CN1CCCC1	1290 nM					
CCN(CC)CCCC(C)Nc1ccnc2cc(Cl)ccc12 (centres undefined) [CHLOROQUINE]					1.8 mg/kg	
CCCCCCCCc1c(C)[nH]c(C)c(Cl)c1=O		4000 nM			> 60 mg/kg	
Cc1[nH]c(C)c(-c2ccc(Oc3ccc(F)cc3)cc2)c(=O)c1Br		40 nM			0.6 mg/kg	
Cc1nc(C)c(Cl)c(O)c1Cl [CLOPIDOL]		20000 nM			40 mg/kg	
Cc1cc(=O)c(-c2ccc(Oc3ccc(OC(F)(F)F)cc3)cc2)c(C)[nH]1	160 nM	160 nM			> 5 mg/kg	
Cc1[nH]c(C(F)(F)F)c(Br)c(=O)c1-c1ccc(Oc2ccc(OC(F)(F)F)cc2)cc1	> 1000 nM					
Cc1[nH]c(C)c(-c2ccc(Oc3ccc(Cl)cc3)cc2)c(=O)c1Cl		60 nM			0.6 mg/kg	

Structure (SMILES)	IC50 (Plasmodium falciparum [1])	IC50 (Plasmodium falciparum [2])	ED50 (Plasmodium yoelii [3])	IC50 (Plasmodium falciparum [4])	ED50 (Plasmodium yoelii [5])	Activity (Plasmodium falciparum [6])
Cc1[nH]c(C)c(-c2ccc(Cl)cc2)c(=O)c1Cl		2500 nM			20 mg/kg	
Cc1c(Br)c(=O)c(-c2ccc(Oc3ccc(Cl)cc3)cc2)c(C)n1O		450 nM			1 mg/kg	
Cc1[nH]c(C)c(-c2ccc(Oc3cccc(C(F)(F)F)c3)cc2)c(=O)c1Br		30 nM	3.6 mg/kg		0.6 mg/kg	
Cc1[nH]c(C)c(-c2ccccc2Oc2ccc(OC(F)(F)F)cc2)c(=O)c1Br	400 nM					
Cc1[nH]c(C)c(-c2ccc(Oc3ccc(Cl)cc3)cc2)c(=O)c1Br		40 nM	5 mg/kg		0.3 mg/kg	
Cc1[nH]c(C)c(-c2ccc(Oc3ccc(C(F)(F)F)cc3)cc2)c(=O)c1Br		30 nM	1.1 mg/kg		0.3 mg/kg	
Cc1[nH]c(C)c(-c2ccc(Oc3cccc(Cl)c3)cc2)c(=O)c1Br		30 nM			3.9 mg/kg	
Cc1cc(=O)c(-c2ccc(Oc3ccc(Cl)cc3)cc2)c(C)[nH]1		250 nM			2.5 mg/kg	
Cc1[nH]c(C)c(-c2ccc(Oc3ccccc3)cc2)c(=O)c1Br		150 nM			4 mg/kg	
Cc1[nH]c(C)c([N+](=O)[O-])c(=O)c1-c1ccc(Oc2ccc(OC(F)(F)F)cc2)cc1	30 nM					
Cc1[nH]c(C)c(-c2cccc(Oc3ccc(OC(F)(F)F)cc3)c2)c(=O)c1Br	7 nM					
O=c1c(-c2ccc(Oc3ccc(OC(F)(F)F)cc3)cc2)c[nH]c(C(F)(F)F)c1Br	> 1000 nM					
Cc1[nH]c(C)c(-c2ccc(Oc3ccc(OC(F)(F)F)cc3)cc2)c(=O)c1Cl	5 nM	30 nM	0.4 mg/kg	1 nM	0.2 mg/kg	Active
Cc1[nH]c(C)c(-c2ccc(Oc3cccc(Cl)c3)cc2)c(=O)c1Cl		30 nM			> 5 mg/kg	
Cc1cc(=O)c(-c2ccc(Oc3ccc(C(F)(F)F)cc3)cc2)c(C)[nH]1		500 nM			1.3 mg/kg	
Cc1[nH]cc(-c2ccc(Oc3ccc(OC(F)(F)F)cc3)cc2)c(=O)c1Br	200 nM					
Cc1[nH]c(C)c([C@H]2CC[C@H](c3ccc(Cl)cc3)CC2)c(=O)c1Cl		50 nM			0.6 mg/kg	

— ChEMBL document CHEMBL1150240, “Synthesis and structure-activity relationships of 4-pyridones as potential antimalarials” (J Med Chem, 2008)
